Values joined by “and” are separate entries in the source; they are usually repeats but may differ in a detail not shown here. Equal values may be shown once. ± gives the expanded uncertainty stated by the source.
Experiment: mn = molality of the nth substance listed, in mol/kg
Conditions: 100 kPa, Liquid; for viscosity: Capillary tube (Ostwald / Ubbelohde) method; for mass density: Vibrating tube method

## C(=NCCN=Cc1ccccn1)c1ccccn1 [N,N'-bis(2-pyridinylmethylene)-1,2-ethanediamine] + CC#N
298.15 K, m1 = 0.0396
  viscosity: 0.3511 ± 0.0074 mPa·s
298.15 K, m1 = 0.0397
  viscosity: 0.359 ± 0.0076 mPa·s
  mass density: 778.8 ± 3.9 kg/m3
298.15 K, m1 = 0.0412
  viscosity: 0.352 ± 0.0075 mPa·s and 0.368 ± 0.0078 mPa·s
  mass density: 778.98 ± 3.9 kg/m3 and 778.99 ± 3.9 kg/m3
298.15 K, m1 = 0.0707
  viscosity: 0.372 ± 0.0079 mPa·s
  mass density: 781 ± 3.9 kg/m3
298.15 K, m1 = 0.076
  viscosity: 0.3695 ± 0.0078 mPa·s
  mass density: 781.24 ± 3.9 kg/m3
298.15 K, m1 = 0.0794
  viscosity: 0.367 ± 0.0078 mPa·s
  mass density: 781.36 ± 3.9 kg/m3
298.15 K, m1 = 0.085
  viscosity: 0.357 ± 0.0076 mPa·s
  mass density: 781.2 ± 3.9 kg/m3
298.15 K, m1 = 0.1109
  viscosity: 0.381 ± 0.0081 mPa·s
  mass density: 783.49 ± 3.9 kg/m3
298.15 K, m1 = 0.1136
  viscosity: 0.368 ± 0.0078 mPa·s
  mass density: 783.49 ± 3.9 kg/m3
298.15 K, m1 = 0.1159
  viscosity: 0.374 ± 0.0079 mPa·s
  mass density: 783.49 ± 3.9 kg/m3
298.15 K, m1 = 0.1172
  viscosity: 0.374 ± 0.0079 mPa·s
  mass density: 783.63 ± 3.9 kg/m3
298.15 K, m1 = 0.1441
  viscosity: 0.397 ± 0.0084 mPa·s
  mass density: 785.8 ± 3.9 kg/m3
298.15 K, m1 = 0.1487
  viscosity: 0.395 ± 0.0083 mPa·s
  mass density: 786.71 ± 3.9 kg/m3
298.15 K, m1 = 0.1539
  viscosity: 0.381 ± 0.0081 mPa·s
  mass density: 785.86 ± 3.9 kg/m3
298.15 K, m1 = 0.1655
  viscosity: 0.375 ± 0.0079 mPa·s
  mass density: 785.87 ± 3.9 kg/m3
298.15 K, m1 = 0.396
  mass density: 779.08 ± 3.9 kg/m3
303.15 K, m1 = 0.0397
  mass density: 770.6 ± 3.9 kg/m3
303.15 K, m1 = 0.0412
  mass density: 773.9 ± 3.9 kg/m3 and 773.55 ± 3.9 kg/m3
303.15 K, m1 = 0.0707
  mass density: 775.97 ± 3.9 kg/m3
303.15 K, m1 = 0.076
  mass density: 772.52 ± 3.9 kg/m3
303.15 K, m1 = 0.0794
  mass density: 775.79 ± 3.9 kg/m3
303.15 K, m1 = 0.085
  mass density: 776.45 ± 3.9 kg/m3
303.15 K, m1 = 0.1109
  mass density: 778.35 ± 3.9 kg/m3
303.15 K, m1 = 0.1136
  mass density: 778.33 ± 3.9 kg/m3
303.15 K, m1 = 0.1159
  mass density: 775.25 ± 3.9 kg/m3
303.15 K, m1 = 0.1172
  mass density: 777.74 ± 3.9 kg/m3
303.15 K, m1 = 0.1441
  mass density: 780.11 ± 3.9 kg/m3
303.15 K, m1 = 0.1487
  mass density: 778.7 ± 3.9 kg/m3
303.15 K, m1 = 0.1539
  mass density: 780.33 ± 3.9 kg/m3
303.15 K, m1 = 0.1655
  mass density: 780.09 ± 3.9 kg/m3
303.15 K, m1 = 0.396
  mass density: 773.62 ± 3.9 kg/m3
308.15 K, m1 = 0.0397
  mass density: 762.7 ± 3.8 kg/m3
308.15 K, m1 = 0.0412
  mass density: 765.55 ± 3.8 kg/m3 and 766.66 ± 3.8 kg/m3
308.15 K, m1 = 0.0707
  mass density: 767.82 ± 3.8 kg/m3
308.15 K, m1 = 0.076
  mass density: 764.1 ± 3.8 kg/m3
308.15 K, m1 = 0.0794
  mass density: 769.83 ± 3.9 kg/m3
308.15 K, m1 = 0.085
  mass density: 769.8 ± 3.9 kg/m3
308.15 K, m1 = 0.1109
  mass density: 771.54 ± 3.9 kg/m3
308.15 K, m1 = 0.1136
  mass density: 771.48 ± 3.9 kg/m3
308.15 K, m1 = 0.1159
  mass density: 767.32 ± 3.8 kg/m3
308.15 K, m1 = 0.1172
  mass density: 772.75 ± 3.9 kg/m3
308.15 K, m1 = 0.1441
  mass density: 774.3 ± 3.9 kg/m3
308.15 K, m1 = 0.1487
  mass density: 769.46 ± 3.9 kg/m3
308.15 K, m1 = 0.1539
  mass density: 775.54 ± 3.9 kg/m3
308.15 K, m1 = 0.1655
  mass density: 774.28 ± 3.9 kg/m3
308.15 K, m1 = 0.396
  mass density: 766.62 ± 3.8 kg/m3
313.15 K, m1 = 0.0397
  mass density: 754.02 ± 3.8 kg/m3
313.15 K, m1 = 0.0412
  mass density: 759.53 ± 3.8 kg/m3 and 758.9 ± 3.8 kg/m3
313.15 K, m1 = 0.0707
  mass density: 761.2 ± 3.8 kg/m3
313.15 K, m1 = 0.076
  mass density: 756.48 ± 3.8 kg/m3
313.15 K, m1 = 0.0794
  mass density: 761.42 ± 3.8 kg/m3
313.15 K, m1 = 0.085
  mass density: 762.5 ± 3.8 kg/m3
313.15 K, m1 = 0.1109
  mass density: 764.87 ± 3.8 kg/m3
313.15 K, m1 = 0.1136
  mass density: 764.85 ± 3.8 kg/m3
313.15 K, m1 = 0.1159
  mass density: 759.62 ± 3.8 kg/m3
313.15 K, m1 = 0.1172
  mass density: 767.66 ± 3.8 kg/m3
313.15 K, m1 = 0.1441
  mass density: 767.8 ± 3.8 kg/m3
313.15 K, m1 = 0.1487
  mass density: 761.79 ± 3.8 kg/m3
313.15 K, m1 = 0.1539
  mass density: 770.79 ± 3.9 kg/m3
313.15 K, m1 = 0.1655
  mass density: 767.87 ± 3.8 kg/m3
313.15 K, m1 = 0.396
  mass density: 760.23 ± 3.8 kg/m3

From the NIST ThermoML archive (doi:10.1021/je501054c)
